Results on three compounds are retold here after patent publication US20150191484A1, “NOVEL COMPOUNDS HAVING A TETRACYCLIC IRIDOID SKELTON AND AN ANTI-TRYPANOSOMAL AGENT COMPRISING THE SAME AS AN ACTIVE INGREDIENT” (NATIONAL UNIVERSITY CORPORATION TOKYO MEDICAL AND DENTAL …, priority 2014, published 2015).

Broadly, the IC50 is the concentration needed to halve the response being measured.

“Also recorded” adds a separate entry of the source.

Data set [1] relates to nuclear DNA of Trypanosoma cells. As to conditions: reported in literature; cited from earlier work.
The test system of data set [2] is Trypanosoma cells. As to the kind of experiment: Nexin apoptosis assay (FACS). The class given is cell-based, Trypanosoma brucei brucei. On the procedure:
(§1) The GUTat 3.1 strain of the bloodstream forms of T. b. brucei parasites was used for this study. Parasites were cultured in vitro according to the conditions established by Yabu et al, 1998.
(§2) Parasites were used when they reached a confluent concentration of 1×10^6 parasites/ml. Estimation of parasitemia was done with the Neubauer's counting chamber. Parasites were diluted to a concentration of 3×10^5 parasites/ml with HMI-9 medium and used for the various experiments.
This assay was performed to detect both Phosphatidylserine (PS) signal and fracture of nuclear membraneas markers of apoptosis. Seeding and incubation of parasites with plant materials (extracts, fractions and compounds) were done under the same conditions in Alamar Blue assay. […] The contents of the wells were then subjected to FACS analysis using, the Millipore guava easyCyte 5HT FACS machine for the sorting and estimation of apoptotic parasites according to the manufacturer's instructions.

The subject of the next data set is HCT-15 (colon cancer). As to the kind of experiment: MTT cytotoxicity assay, HCT-15. The class given is cell-based, human. Conditions: IC50 against HCT-15 / IC50 against T. brucei. On the procedure:
(§3) The cytotoxic activity of natural products against mammalian cells is an important point in the search for active compounds with biological activity. […] In order to confirm the selective and potent anti-trypanosomal activity of ML-2-2 and ML-2-3, we examined their cytotoxicity in a panel of human cell lines including two human fibroblastic and 8 human cancer-derived cell lines. Cells were seeded in 96-well microplates and incubated with ML-2-2 and ML-2-3 for 48 h at 37° C. in a 5% CO2 humidified incubator. The viabilities of cells were determined with the MTT (3-(4,5-dimethylthiazol-2-yl)-2-5-diphenyltetrazolium bromide) assay. The selectivity index (SI) was determined using the following equation: IC50 against human cells/IC50 against T. brucei. The IC50 values of ML-2-3 were higher than those of ML-2-2 in all the cell lines examined. […] The SI of ML-2-2 indicates values below 1.00 in most cell lines. On the other hand, SI values of ML-2-3 were much higher than those of ML-2-2 in all tested cell lines.
(In general: Tetrazolium dyes change colour on reduction, which living cells bring about.)

Data set [3] can be described thus: MTT cytotoxicity assay, HCT-15. The class given is cell-based, human. As to conditions: human, HCT-15 colon cancer cells; HCT-15 colon cancer, 48 h, MTT. On the procedure: as §3
The subject of data set [4] is GUTat 3.1 strain of the bloodstream forms of T. b. brucei parasites. As to the kind of experiment: Alamar Blue assay (trypanocidal activity). Format: cell-based, Trypanosoma brucei brucei. Conditions: Trypanosoma brucei, 48 h, T. b. brucei, Alamar Blue, 48 h; read-out: IC50 of anti-trypanosomal activity. On the procedure:
as §1, §2
The Alamar Blue assay was carried out in a 96-well plate. About 1.5×10^4 Parasites were seeded with varied concentrations of the Morinda lucida crude extract, ranging from as low as 0.78 μg/ml to as high as 200 μg/ml, in a ratio of 1:1 in 100 μl volume per well. Berberine, a compound known as anti-trypanocidal agent, was used as a positive control. […] The parasites were incubated with the plant extracts for 24 hours at 37° C. and under 5% CO2. After 24 hours, 10% Alamar Blue dye was added to each well and re-incubated for another 24 hours under the same conditions but in darkness. After a total of 48 hours, the plate was read for absorbance at 540 nm using the TECAN Sunrise Wako Spectrophotometer. An Absorbance-concentration (extract) curve was drawn and the IC50 value of the plant extract was extrapolated. Alamar Blue assay was also performed on the fractions and compounds purified from Morinda Lucida to determine their IC50 values. The IC50 values obtained were compared with that of the positive control and trypanocidal activity determined.
(In general: The colour change of resazurin is a common sign of viable cells or microbes.)

The nature of data set [5]: MTT cytotoxicity assay, THP-1. Format: cell-based, human. As to conditions: human, THP-1 leukemia cells; THP-1 leukemia, 48 h, MTT. On the procedure: as §3
The test system of the next data set is THP-1 (leukemia). As to the kind of experiment: MTT cytotoxicity assay, THP-1. The class given is cell-based, human. Conditions: IC50 against THP-1 / IC50 against T. brucei. On the procedure:
as §3

The next data set has as its system Caco2 (colon cancer). Put plainly: MTT cytotoxicity assay, Caco2. Conditions: IC50 against Caco2 / IC50 against T. brucei. The class given is cell-based, human. On the procedure:
as §3

Data set [6] is described as follows: MTT cytotoxicity assay, Caco2. The class given is cell-based, human. Conditions: human, Caco2 colon cancer cells; Caco2 colon cancer, 48 h, MTT. On the procedure:
as §3

The next data set deals with Jurkat (leukemia). As to the kind of experiment: MTT cytotoxicity assay, Jurkat. Format: cell-based, human. Conditions: IC50 against Jurkat / IC50 against T. brucei. On the procedure: as §3
Data set [7] is described as follows: MTT cytotoxicity assay, Jurkat. Conditions: human, Jurkat leukemia cells; Jurkat leukemia, 48 h, MTT. The class given is cell-based, human. On the procedure: as §3
The test system of a further data set is HL-60 (leukemia). Put plainly: MTT cytotoxicity assay, HL-60. Format: cell-based, human. Conditions: IC50 against HL-60 / IC50 against T. brucei. On the procedure:
as §3

The nature of data set [8]: MTT cytotoxicity assay, HL-60. Conditions: human, HL-60 leukemia cells; HL-60 leukemia, 48 h, MTT. Format: cell-based, human. On the procedure:
as §3

In a further data set the test system is LoVo (colon cancer). As to the kind of experiment: MTT cytotoxicity assay, LoVo. Conditions: IC50 against LoVo / IC50 against T. brucei. The class given is cell-based, human. On the procedure: as §3
Data set [9] in a line: MTT cytotoxicity assay, LoVo. The class given is cell-based, human. As to conditions: human, LoVo colon cancer cells; LoVo colon cancer, 48 h, MTT. On the procedure:
as §3

Another data set deals with U937 (leukemia). As to the kind of experiment: MTT cytotoxicity assay, U937. Format: cell-based, human. As to conditions: IC50 against U937 / IC50 against T. brucei. On the procedure: as §3
Data set [10] in a line: MTT cytotoxicity assay, U937. Conditions: human, U937 leukemia cells; U937 leukemia, 48 h, MTT. Format: cell-based, human. On the procedure: as §3
Data set [11] has as its system Trypanosoma cells. Put plainly: Cell cycle assay (FACS). The class given is cell-based, Trypanosoma brucei brucei. Conditions: four times of IC50: 15 μM ML-2-3, 5 μM ML-2-2; 24 hours. On the procedure: as §1, §2
This assay was performed to investigate any abnormal change in the parasites' cell cycle which may be caused by extracts/compounds with trypanocidal effect. […] The parasites were collected and transferred into 15 ml centrifuge tubes and centrifuged at 1700 rpm for 10 min, after which the supernatant was discarded. The pelleted parasites were re-suspended in 5 ml PBS solution and vortexed to form a suspension. The parasite suspension was centrifuged at 1700 rpm for 10 min and the supernatant discarded. The pelleted parasites were re-suspended in 1.5 ml of PBS and vortexed thoroughly before adding 3.5 ml absolute EtOH gradually to a final volume of 5 ml 70% EtOH. The parasites were then fixed at −20° C. for 1 h. The cell suspension was then centrifuged at 1700 rpm for 10 min and the supernatant discarded. Pelleted parasites were re-suspended in 200 μl of Guava Cell Cycle reagent, which has Propidium Iodide as its main constituent and incubated at room temperature for 30 min. The solution was transferred to wells of 96-well plate. The well contents were then subjected to FACS analysis using the Millipore guava easyCyte 5HT FACS machine, for the sorting of parasites according to the manufacturer's instructions.

The test system of the next data set is KATOIII (stomach cancer). Put plainly: MTT cytotoxicity assay, KATOIII. Conditions: IC50 against KATOIII / IC50 against T. brucei. The class given is cell-based, human. On the procedure: as §3
Data set [12] in a line: MTT cytotoxicity assay, KATOIII. The class given is cell-based, human. Conditions: human, KATOIII stomach cancer cells; KATOIII stomach cancer, 48 h, MTT. On the procedure:
as §3

In data set [13] the test system is NB1RGB (normal fibroblast). Put plainly: MTT cytotoxicity assay, NB1RGB. The class given is cell-based, human. Conditions: IC50 against NB1RGB / IC50 against T. brucei. On the procedure:
as §3

Data set [14] can be described thus: MTT cytotoxicity assay, NB1RGB. The class given is cell-based, human. As to conditions: human, NB1RGB normal fibroblast cells; NB1RGB normal fibroblast, 48 h, MTT. On the procedure:
as §3

The test system of data set [15] is HF-19 (normal fibroblast). As to the kind of experiment: MTT cytotoxicity assay, HF-19. The class given is cell-based, human. As to conditions: IC50 against HF-19 / IC50 against T. brucei. On the procedure:
as §3

Data set [16] in a line: MTT cytotoxicity assay, HF-19. The class given is cell-based, human. Conditions: human, HF-19 normal fibroblast cells; HF-19 normal fibroblast, 48 h, MTT. On the procedure:
as §3

The next data set deals with Leishmania. Conditions: reported in literature; cited from earlier work.

As for `N=C(N)c1ccc(OCCCCCOc2ccc(C(=N)N)cc2)cc1` [Pentamidine], the “effect on nuclear DNA of Trypanosoma cells” value in data set [1] was “no effect on nuclear DNA”.

Regarding `COC(=O)C1=CO[C@@H]2O[C@H]3/C(=C\c4ccc(O)c(OC)c4)C(=O)O[C@]34C=C[C@H]1[C@H]24` [ML-2-2, (3aS,4aR,4a^1S,7aS,9aS,3E)-methyl 3-(4-hydroxy-3-methoxybenzylidene)-2-oxo-2,3,3a,4a,4a^1,7a-hexahydro-1,4,5-trioxadicyclopenta[a,hi]indene-7-carboxylate], in the data set with Trypanosoma cells [2] (6.25 μM, 24-hour incubation), the induction of apoptosis result is reported as “no significant induction of apoptosis”. Moreover, the “induction of apoptosis in Trypanosoma cells” value in the data set with Trypanosoma cells [2] (same concentration (6 μM)) is reported as “did not”. Besides, the “SI (selectivity index)” value in the data set on HCT-15 (colon cancer) turned out to be 12.63; in the data set on THP-1 (leukemia) it was 5.50; in the data set with Caco2 (colon cancer) it was 1.06; in the data set with Jurkat (leukemia), 1.93; with HL-60 (leukemia), 3.05; with LoVo (colon cancer) it was 0.09. Besides, the “SI (selectivity index)” value with U937 (leukemia) is recorded as 3.21; in the data set with KATOIII (stomach cancer) it was 0.17; in data set [13], 4.73; in data set [15], 9.54. The IC50 at 48 h in data set [3] was found to be 16 µM; in data set [5], 6.98 µM; in data set [6] it was 1.35 µM; in [7], 2.45 µM; in data set [8], 3.87 µM; in data set [9], 0.11 µM. Further, the IC50 at 48 h in data set [10] was 4.08 µM; in [12] it was 0.21 µM; in data set [14] it was 6.01 µM; in [16], 12.1 µM. Besides, in data set [4], the IC50 is 1.27 µM. Further, the “numbers of cells in the G2 and M phase of cell cycle” value in the data set on Trypanosoma cells [11] is on record as “did not; also recorded: had no effect”.

Regarding `COC(=O)C1=CO[C@H]2O[C@@H]3/C(=C\c4ccc(O)c(OC)c4)C(=O)O[C@@]34C=C[C@@H]1[C@H]24` [Oruwacin], the anti-Leishmania activity entry in the data set on Leishmania is reported as “has anti-Leishmania activity”.
